“Also recorded” adds a separate entry of the source.
Tests used:
[1] = tested on: human breast cancer cell line MCF-7; test: Mitogenicity in cell culture (cell growth, DNA content); format: cell-based; conditions: MCF-7, 3-days exposure, cell number and DNA content
Protocol: Growth media were supplemented with 10% fetal bovine serum (FBS) (Invitrogen Life Technologies, Inc., Carlsbad, AA), penicillin (100 U/ml) and streptomycin (100 ug/mL). Approximately 1.0×10^5 cells were seeded into 35-mm dishes and cultured until subconfluent. Two assays were employed: (i) Cell-growth curves were determined by hemocytometry. Approximately 5×10^4 were seeded into a 24-well plate and cultured for 24 h. After 24 hour, the medium was removed and replaced with fresh medium containing 0.1% BSA. […] Cell numbers were determined after 3-days exposure to the hormones. (ii) Cell DNA content was determined using a DNA measurement kit (Invitrogen) following 3-days exposure to the hormones in cell culture as above.

[2] = tested on: diabetic Lewis rats; test: Blood glucose lowering in streptozotocin-diabetic rats; format: in vivo, rat; conditions: streptozotocin-diabetic male Lewis rats, 1.5 U/kg subcutaneously, 0-90 min
Protocol: Male Lewis rats (˜250 g body weight) were rendered diabetic with streptozotocin. […] Rats were injected subcutaneously at time=0 with 1.5 U/kg body weight in 100 μl of diluent. Blood was obtained from clipped tip of the tail at time 0 and every 10 minutes up to 90 min. Blood glucose was measured using a Hypoguard Advance Micro-Draw meter.

[3] = molecular target: T1, Insulin-like Growth Factor receptor (IGFR) (Homo sapiens, UniProt P08069); test: IGFR binding assay (microtiter plate antibody assay); conditions: relative to IGF-1
T1 construct: expressed in transfected cells; host or cells: PEAK rapid cells, transient transfection, Triton X-100 lysate
T1 sequence (P08069 31-736 limits assumed): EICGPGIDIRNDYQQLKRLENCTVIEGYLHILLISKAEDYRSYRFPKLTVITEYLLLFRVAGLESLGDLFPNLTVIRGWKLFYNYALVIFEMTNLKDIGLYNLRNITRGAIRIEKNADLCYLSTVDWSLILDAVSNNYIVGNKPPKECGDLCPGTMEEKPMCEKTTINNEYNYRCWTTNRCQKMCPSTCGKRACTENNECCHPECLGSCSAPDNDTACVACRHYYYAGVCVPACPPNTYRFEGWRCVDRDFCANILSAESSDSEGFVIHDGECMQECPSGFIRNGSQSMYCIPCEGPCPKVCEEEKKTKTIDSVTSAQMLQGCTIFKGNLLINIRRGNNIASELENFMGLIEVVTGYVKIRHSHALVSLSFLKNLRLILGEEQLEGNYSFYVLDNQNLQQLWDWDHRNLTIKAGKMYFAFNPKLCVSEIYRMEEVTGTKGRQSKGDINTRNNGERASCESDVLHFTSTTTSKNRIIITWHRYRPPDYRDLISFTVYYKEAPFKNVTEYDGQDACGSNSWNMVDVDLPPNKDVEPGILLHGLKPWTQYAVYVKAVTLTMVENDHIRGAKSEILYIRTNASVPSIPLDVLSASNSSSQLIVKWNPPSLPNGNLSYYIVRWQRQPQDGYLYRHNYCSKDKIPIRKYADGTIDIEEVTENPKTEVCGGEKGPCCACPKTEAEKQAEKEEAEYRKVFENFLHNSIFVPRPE
T1 sequence (P08069 741-1367 partner limits assumed): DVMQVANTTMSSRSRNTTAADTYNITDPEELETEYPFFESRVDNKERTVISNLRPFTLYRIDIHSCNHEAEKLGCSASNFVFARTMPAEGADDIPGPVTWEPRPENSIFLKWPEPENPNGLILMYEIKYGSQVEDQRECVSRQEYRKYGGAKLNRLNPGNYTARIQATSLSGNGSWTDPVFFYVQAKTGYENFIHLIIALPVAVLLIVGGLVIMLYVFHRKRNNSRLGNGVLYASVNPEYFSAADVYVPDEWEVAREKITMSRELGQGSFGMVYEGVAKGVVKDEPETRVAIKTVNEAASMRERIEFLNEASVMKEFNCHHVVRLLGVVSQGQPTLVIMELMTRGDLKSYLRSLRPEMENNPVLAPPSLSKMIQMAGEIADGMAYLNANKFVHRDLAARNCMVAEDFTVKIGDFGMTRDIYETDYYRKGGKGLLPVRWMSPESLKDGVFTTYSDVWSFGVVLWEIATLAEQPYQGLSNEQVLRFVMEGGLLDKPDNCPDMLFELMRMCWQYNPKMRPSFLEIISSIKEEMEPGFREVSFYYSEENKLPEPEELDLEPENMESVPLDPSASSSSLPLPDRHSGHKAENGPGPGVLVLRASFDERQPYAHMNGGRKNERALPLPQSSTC
Protocol: Receptor-Binding Assays. […] Subsequent to incubation, mixtures are diluted with 1 ml of ice-cold buffer and centrifuged (10,000 g) for 5 min at 4° C. The supernatant will then be removed by aspiration, and the membrane pellet counted for radioactivity. […] Binding data were analyzed by a two-site sequential model. A corresponding microtiter plate antibody assay using the IGF Type I receptor was employed to assess cross-binding to this homologous receptor.
DNA for transfection was prepared according to the method of Mynarcik et al. (J. Biol. Chem., 1997, 272, pp 18650-18655). The receptor cDNAs were expressed transiently in PEAK rapid cells using polyethyleneimine. Cells were harvested by lysis in 0.15M NaCl and 0.1M Tris (pH 8) containing 1% (v/v) Triton X-100 and protease inhibitor cocktail three days post-transfection. Lysates were stored at −80° C. until assay. Receptor-binding assays were performed as described by Mynarcik. Microtiter strip plates (Nunc Maxisorb) were incubated overnight at 4° C. with anti-FLAG IgG ([…] of a […] solution in PBS). […] Binding data were analyzed by a two-site sequential model with homologous or heterologous labeled and unlabeled ligands to obtain dissociation constants as described by Whittaker et al. (J. Biol. Chem., 2001, 276, pp 43980-43986).

[4] = Thermodynamic stability by guanidine denaturation; format: physicochemical; conditions: 37° C. and pH 7.4
Protocol: Circular Dichroism—Samples were dissolved in either 10 mM phosphate and 100 mM KCl (pH 7.4) or 0.01 N HCl (pH 2.0) at a protein concentration of 25 μM. To remove particulate matter and protein aggregates, samples were filtered ([…]; Satorius, Goetlingen, Germany). Spectra, acquired with an Aviv spectropolarimeter (Aviv Biomedical, Inc., Lakewood, N.J.), were normalized. […]

[5] = Fibrillation assay (thioflavin T fluorescence); format: physicochemical; conditions: zinc free, 60 μM, pH 7.4, 37° C., tilting table
Protocol: Samples (in triplicate) were placed in sealed glass vials and placed on an automated tilting table at 37° C. At successive times aliquots were withdrawn and analyzed by a thioflavin T (ThT) fluorescence spectroscopy assay to determine the onset of fibrillation as follows.
Thioflavin T (ThT) was made 1 mM in double-distilled water and stored at 4° C. in the dark. To monitor fibrillation, 10-μl aliquots of samples were obtained at indicated time points and were mixed with 3 ml of ThT assay buffer (5 μM ThT in 50 mM Tris-HCl (pH 7.5) and 100 mM NaCl). Fluorescence measurements were performed using an Aviv spectrofluorometer in 1-cm quartz cuvettes. Emission spectra were collected from 470 to 500 nm following excitation at 450 nm; the integration time was 1 s. ThT in buffer without protein was used as baseline. The fibrillation lag time is defined as the time required to observe twofold enhancement in ThT emission. The threshold of twofold-enhanced ThT fluorescence is followed a rapid increase in turbidity associated with elongation of mature fibrils and a further increase in ThT fluorescence.

| Substance | mitogenicity ([1]; listed as 57 mer single-chain insulin analogue) | rate of decrease of blood glucose concentration [2] [mg/dL per h] | IGFR Relative Affinity [3] | mitogenicity [1] | ΔGu [4] [kcal/mol] | Lag time (days ± 10%) [5] [days] |
| --- | --- | --- | --- | --- | --- | --- |
| 57mer single-chain analogue: 57-mer single-chain insulin, SEQ ID NO: 26; His^A8, Asp^B10, Asp^B28, Pro^B29 substitutions; six-residue linker GGGPRR between B30 and A1 | indistinguishable from human insulin; also recorded: significantly less mitogenic than IGF-I | 62.0±16.3 |  |  |  |  |
| IGF-I |  |  | 1 |  |  |  |
| Corresponding two-chain analogue: two-chain insulin analogue with His^A8, Asp^B10, Asp^B28, Pro^B29 substitutions; SEQ ID NOS: 28 and 29 |  | 53.2±11.7 |  | intermediate between the single-chain insulin analogue | 3.6 | 70 ± 5 |

Reference: US8501440B2 (Case Western Reserve University, priority 2006, dated 2013)
